In the supplement of paper PMC10307832:

Key:
Test in all cases: relative viability (nuclei count vs DMSO), 5 days (fraction); higher = more cells survive
[1] = compound: O=C(NCCCNc1nc(Nc2cccc(NC(=O)N3CCCC3)c2)ncc1I)c1cccs1 [BX 795] + Cc1nc(NC(=O)N2CCC[C@H]2C(N)=O)sc1-c1ccnc(C(C)(C)C(F)(F)F)c1 [Alpelisib] (partner 2 µM)
Outline: (§1)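 Each reported value is a median over duplicate plates. It expresses relative viability: treated-well nuclei count divided by vehicle-well nuclei count. Lung cancer cell lines in 1536-well plates were dosed by pin tool a day after seeding, alone with one drug or with a fixed anchor-drug dose plus five library-drug doses (not always all listed) in √10 steps, and nuclei were counted after 5 days.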

[2] = compound: O=C(NCCCNc1nc(Nc2cccc(NC(=O)N3CCCC3)c2)ncc1I)c1cccs1 [BX 795] + C[C@@H](Oc1cc(-c2cnn(C3CCNCC3)c2)cnc1N)c1c(Cl)ccc(F)c1Cl [Crizotinib] (partner 1 µM)
Outline: as §1

[3] = compound: O=C(NCCCNc1nc(Nc2cccc(NC(=O)N3CCCC3)c2)ncc1I)c1cccs1 [BX 795] + Cc1nc(Nc2ncc(C(=O)Nc3c(C)cccc3Cl)s2)cc(N2CCN(CCO)CC2)n1 [Dasatinib] (partner 0.075 µM)
Outline: as §1

[4] = compound: O=C(NCCCNc1nc(Nc2cccc(NC(=O)N3CCCC3)c2)ncc1I)c1cccs1 [BX 795] + O=C(c1cc(Cc2n[nH]c(=O)c3ccccc23)ccc1F)N1CCN(C(=O)C2CC2)CC1 [Olaparib] (partner 8 µM)
Outline: as §1

[5] = compound: O=C(NCCCNc1nc(Nc2cccc(NC(=O)N3CCCC3)c2)ncc1I)c1cccs1 [BX 795] + NC(=O)Nc1cc(-c2cccc(F)c2)sc1C(=O)N[C@H]1CCCNC1 [AZD7762] (partner 0.2 µM)
Outline: as §1

Cell Line | relative viability ([1]; first compound 0.04 µM) | relative viability ([1]; first compound 0.1265 µM) | relative viability ([1]; first compound 0.4 µM) | relative viability ([1]; first compound 1.265 µM) | relative viability ([2]; first compound 0.04 µM) | relative viability ([2]; first compound 0.1265 µM) | relative viability ([2]; first compound 0.4 µM) | relative viability ([2]; first compound 1.265 µM) | relative viability ([3]; first compound 0.04 µM) | relative viability ([3]; first compound 0.1265 µM) | relative viability ([3]; first compound 0.4 µM) | relative viability ([3]; first compound 1.265 µM) | relative viability ([4]; first compound 0.04 µM) | relative viability ([4]; first compound 0.1265 µM) | relative viability ([4]; first compound 0.4 µM) | relative viability ([4]; first compound 1.265 µM) | relative viability ([5]; first compound 0.04 µM) | relative viability ([5]; first compound 0.1265 µM) | relative viability ([5]; first compound 0.4 µM) | relative viability ([5]; first compound 1.265 µM)
HCC-78 | 0.406 | 0.337 | 0.39 | 0.303 | 0.413 | 0.354 | 0.355 | 0.318 | 0.462 | 0.379 | 0.364 | 0.392 | 1.1 | 0.811 | 0.882 | 0.605 | 0.583 | 0.631 | 0.606 | 0.594
HCC-44 | 0.742 | 0.865 | 0.85 | 0.543 | 0.811 | 0.876 | 0.973 | 0.581 | – | – | – | – | 0.995 | 1.01 | 1.06 | 1 | 0.976 | 1 | 1.09 | 1.09
A549 | 0.761 | 0.731 | 0.6 | 0.267 | 0.725 | 0.71 | 0.777 | 0.128 | – | – | – | – | 0.495 | 0.379 | 0.279 | 0.219 | – | – | – | –
HCC-15 | 0.865 | 0.877 | 0.959 | 0.665 | 0.784 | 0.883 | 0.743 | 0.461 | 0.54 | 0.587 | 0.559 | 0.463 | 0.857 | 0.73 | 1.04 | 0.499 | 1.21 | 1.26 | 1.27 | 1.18
H3255 | 0.873 | 0.845 | 0.759 | 0.584 | 0.903 | 0.831 | 0.852 | 0.644 | 0.361 | 0.307 | 0.346 | 0.386 | 0.624 | 0.608 | 0.501 | 0.492 | 0.933 | 0.869 | 0.846 | 0.859
CAL-12T | 1.12 | 1.5 | 1.29 | 0.285 | 0.562 | 0.426 | 0.309 | 0.333 | 0.521 | 0.387 | 0.281 | 0.129 | 0.877 | 0.769 | 0.725 | 0.41 | 0.555 | 0.617 | 0.609 | 0.584
NCI-H441 | 0.779 | 0.748 | 1.42 | 0.552 | 0.874 | 0.695 | 0.878 | 0.508 | 0.695 | 0.7 | 0.587 | 0.459 | 0.665 | 0.623 | 0.497 | 0.413 | 1.23 | 1.21 | 1.07 | 0.866
HCC-366 | 0.462 | 0.432 | 0.291 | 0.113 | 0.541 | 0.616 | 0.188 | 0.313 | 0.757 | 0.73 | 0.498 | 0.631 | 0.336 | 0.404 | 0.175 | 0.252 | 0.228 | 0.227 | 0.19 | 0.306
NCI-H1437 | 1.02 | 1.06 | 1.01 | 0.863 | 0.871 | 0.96 | 1.03 | 0.562 | 0.308 | 0.467 | 0.396 | 0.379 | 0.632 | 0.664 | 0.651 | 0.483 | 1.14 | 1.14 | 0.888 | 1.18
NCI-H1563 | 0.964 | 0.859 | 0.917 | 0.811 | 0.852 | 0.849 | 0.82 | 0.617 | 0.476 | 0.429 | 0.439 | 0.405 | – | – | – | – | – | – | – | –
SK-MES-1 | 1.02 | 0.909 | 0.925 | 0.641 | 1.13 | 0.939 | 0.836 | 0.78 | 0.416 | 0.453 | 0.164 | 0.223 | 0.746 | 0.646 | 0.688 | 0.383 | – | – | – | –
NCI-H661 | 0.85 | 0.834 | 0.686 | 0.704 | 1.06 | 1.02 | 1.12 | 0.865 | 0.9 | 0.938 | 0.501 | 0.515 | 0.742 | 0.826 | 0.662 | 0.583 | – | – | – | –
COR-L 105 | 1.08 | 0.84 | 0.745 | 0.412 | 0.789 | 0.588 | 0.56 | 0.279 | 0.367 | 0.357 | 0.278 | 0.255 | 0.705 | 0.491 | 0.644 | 0.562 | – | – | – | –
NCI-H2342 | – | – | – | – | – | – | – | – | 0.307 | 0.319 | 0.287 | 0.312 | 0.497 | 0.448 | 0.479 | 0.357 | 0.591 | 0.538 | 0.481 | 0.399
NCI-H520 | 0.859 | 0.91 | 0.786 | 0.444 | 0.662 | 0.571 | 0.443 | 0.249 | 0.199 | 0.194 | 0.376 | 0.162 | 0.334 | 0.357 | 0.307 | 0.22 | – | – | – | –
NCI-H1975 | 0.6 | 0.671 | 0.626 | 0.406 | 0.99 | 1.04 | 0.879 | 0.643 | 0.346 | 0.433 | 0.401 | 0.289 | 0.811 | 0.961 | 0.632 | 0.586 | 0.705 | 0.792 | 0.67 | 0.564
NCI-H2009 | 1.14 | 1.06 | 1.34 | 0.836 | 1.02 | 0.972 | 0.874 | 0.645 | 0.261 | 0.292 | 0.249 | 0.162 | 0.717 | 0.632 | 0.575 | 0.355 | – | – | – | –
NCI-H2405 | 0.785 | 0.735 | 0.372 | 0.626 | 0.806 | 0.842 | 0.635 | 0.794 | 0.185 | 0.193 | 0.191 | 0.187 | 1.03 | 0.839 | 0.558 | 0.878 | 0.714 | 0.678 | 0.664 | 0.573
